Results as given in ChEMBL document CHEMBL1151175, “Cytotoxic sesquiterpenoids from Eupatorium chinense” (J Nat Prod, 2004).
Converted amounts (≈) assume the structure as drawn.

Key:
[1] = tested on: HL-60; assay: Cytotoxicity against human HL60 cells; type: functional, cell-based
[2] = tested on: Bel-7402; assay: Cytotoxicity against human Bel7402 cells; type: functional, cell-based

SMILES | IC50 [1] [µg/mL] | IC50 [2] [µg/mL]
C=C1C(=O)O[C@H]2[C@H]1[C@H](OC(=O)/C(C)=C\C)CC(CO)=C1C[C@H](O)[C@](C)(O)[C@@H]12 [EUPACHINILIDE A] | 10.8 (≈ 28.5 µM) | 72.2 (≈ 191 µM)
C=C1C(=O)O[C@H]2[C@H]1[C@H](OC(=O)/C(C)=C/CO)C[C@](O)(CCl)[C@@H]1[C@H](O)[C@H]3O[C@@]3(C)[C@H]21 [EUPACHINILIDE E] | 1.3 (≈ 3.03 µM) | 18 (≈ 42 µM)
C=C1C(=O)O[C@@H]2/C=C(\C)C[C@H](O)/C=C(\C)C[C@@H](OC(=O)/C(C)=C/COC(C)=O)[C@@H]12 [EUPACHINILIDE I] | 0.94 (≈ 2.32 µM) | 3.6 (≈ 8.9 µM)
C=C1C(=O)O[C@H]2[C@H]1[C@H](OC(=O)/C(C)=C/CO)C[C@](O)(CCl)[C@@H]1[C@H](OC(C)=O)[C@H]3O[C@@]3(C)[C@H]21 [EUPACHNILIDE F] | 0.87 (≈ 1.85 µM) | 3.7 (≈ 7.86 µM)
CC[C@@]1(O)C(=O)OCc2c1cc1n(c2=O)Cc2cc3cc(O)ccc3nc2-1 [HYDROXYCAMPTOTHECIN] | 0.024 (≈ 0.0659 µM) | 0.62 (≈ 1.7 µM)
